For one assay, the system named is T-47D cells. Nature of the assay: Caspase cascade activation (N-(Ac-DEVD)-N'-ethoxycarbonyl-R110 fluorogenic substrate) in T-47D cells. The following applies: 48 h incubation; for EC50: Homo sapiens, T47D, caspase activation potency, read-out: T47 EC50; for T47 Ratio 48 hr: caspase activity: ratio of net RFU of test compound to control. It counts as cell-based, Human. The gist of the method: (§1)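 Cells (0.65×10^6/ml) exposed 48 h at 37 °C to compound (0.016-10 μM final), then lysed with 14 μM DEVD-R110 substrate buffer (PIPES pH 7.2, DTT, lysolecithin) for 3 h at room temperature. Net fluorescence (485/530 nm) relative to control; EC50 by sigmoidal dose-response.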

The test system of another assay is ZR-75-1 cells. Nature of the assay: Caspase cascade activation (N-(Ac-DEVD)-N'-ethoxycarbonyl-R110 fluorogenic substrate) in ZR-75-1 cells. The assay is classed as cell-based, Human. The following applies: ZR-75-1, 48 h incubation; for EC50: Homo sapiens, caspase activation potency; for ZR Ratio 48 hr: caspase activity: ratio of net RFU of test compound to control. In outline: as §1

We go through 26 compounds from patent US6716851B2, “Substituted 2-aryl-4-arylaminopyrimidines and analogs as activators or caspases and inducers of apoptosis and the use thereof” (Cytovia, Inc., priority 2000, dated 2004).

The EC50 is the concentration that produces a half-maximal response. In the case of `COc1ccc(Br)c(Nc2cc(C(F)(F)F)nc(-c3cccnc3)n2)c1` [Example 127, 4-(2-Bromo-5-methoxyanilino)-2-(3-pyridinyl)-6-(trifluoromethyl)pyrimidine], in the assay on T-47D cells, the EC50 came out at 279 nM and the “T47 Ratio 48 hr” value was 10.3. In the assay on ZR-75-1 cells, the response was half-maximal at 550 nM (EC50) and the “ZR Ratio 48 hr” value was determined as 5.3.
`COc1cccc(Nc2cc(-c3ccccn3)nc(-c3ccccn3)n2)c1` [Example 109, 4-(3-Methoxyanilino)-2,6-di(2-pyridinyl)pyrimidine]: in the assay with T-47D cells, the EC50 stood at 1500 nM and the “T47 Ratio 48 hr” value is reported as 3.9. Moreover, in the assay on ZR-75-1 cells, it took 2590 nM to reach a half-maximal effect (EC50) and the “ZR Ratio 48 hr” value is on record as 3.6.
With `COc1ccc(C)c(Nc2cc(C(F)(F)F)nc(-c3cnccn3)n2)c1` [Example 80, 4-(5-Methoxy-2-methylanilino)-2-(2-pyrazinyl)-6-(trifluoromethyl)pyrimidine], in the assay with T-47D cells, the concentration giving a half-maximal response (EC50) stood at 64 nM and the “T47 Ratio 48 hr” value is 8.5. In the assay with ZR-75-1 cells, the midpoint of the response, the EC50, lay at 243 nM and the “ZR Ratio 48 hr” value stood at 5.9.
Consider `Cc1ccc(C)c(Nc2cc(C(F)(F)F)nc(-c3cccnc3)n2)c1` [Example 68, 4-(2,5-Dimethylanilino)-2-(3-pyridinyl)-6-(trifluoromethyl)pyrimidine], for which, in the assay with T-47D cells, the EC50 turned out to be 247 nM and the “T47 Ratio 48 hr” value is reported as 20.9. In addition, in the assay on ZR-75-1 cells, the EC50 was found to be 130 nM and the “ZR Ratio 48 hr” value is reported as 17.9.
For `COc1cccc(Nc2cc(C(F)(F)F)nc(-c3ccccc3)n2)c1` [Example 73, 4-(3-Methoxyanilino)-2-phenyl-6-(trifluoromethyl)pyrimidine] the same measures were above 5000 nM, 1.6, 10000 nM and 2.6.
For the compound `O=S(=O)(c1ccccc1)c1cccc(Nc2cc(C(F)(F)F)nc(-c3cccnc3)n2)c1` [Example 65, 4-[3-(Phenylsulfone)anilino]-2-(3-pyridinyl)-6-(trifluoromethyl)pyrimidine], in the assay with T-47D cells, the EC50 was above 5000 nM and the “T47 Ratio 48 hr” value is 1.7. In the assay on ZR-75-1 cells, the EC50 is above 5000 nM and the “ZR Ratio 48 hr” value was 1.7.
As to `FC(F)(F)c1cc(Nc2cccc3[nH]ccc23)nc(-c2ccccn2)n1` [Example 212, 4-(Indol-4-ylamino)-2-(2-pyridinyl)-6-trifluoromethylpyrimidine], in the assay with T-47D cells, the EC50 came to 3110 nM and the “T47 Ratio 48 hr” value came to 5.8. In the assay on ZR-75-1 cells, the EC50 stood at 2780 nM and the “ZR Ratio 48 hr” value stood at 6.1.
As for `Cn1cc(Br)c(-c2cccc(Nc3cc(C(F)(F)F)nc(-c4cccnc4)n3)c2)n1` [Example 58, 4-[3-(4-Bromo-1-methyl-1H-pyrazol-3-yl)anilino]-2-(3-pyridinyl)-6-(trifluoromethyl)pyrimidine], in the assay on T-47D cells, the EC50 was above 5000 nM and the “T47 Ratio 48 hr” value was 1.5. In the assay on ZR-75-1 cells, the EC50 was above 5000 nM and the “ZR Ratio 48 hr” value is 1.1.
As for `COc1ccc(OC)c(Nc2cc(C(F)(F)F)nc(-c3ccccc3)n2)c1` [Example 75, 4-(2,5-Dimethoxyanilino)-2-phenyl-6-(trifluoromethyl)pyrimidine], in the assay with T-47D cells, the EC50 was determined as 2290 nM and the “T47 Ratio 48 hr” value was 16.3. Moreover, in the assay on ZR-75-1 cells, a half-maximal effect (EC50) was put at 3280 nM and the “ZR Ratio 48 hr” value is recorded as 7.8.
Turning to `COc1cccc(Nc2cc(C(F)(F)F)nc(-c3cccnc3)n2)c1` [Example 19, 4-(3-Methoxyanilino)-2-(3-pyridinyl)-6-(trifluoromethyl)pyrimidine], in the assay on T-47D cells, the EC50 came to 471 nM and the “T47 Ratio 48 hr” value was determined as 16.7. Moreover, in the assay with ZR-75-1 cells, the response was half-maximal at 214 nM (EC50) and the “ZR Ratio 48 hr” value came to 8.9.
As for `COc1ccc(Cl)c(Nc2cc(C)nc(N3CCOCC3)n2)c1` [Example 131, 4-(6-Chloro-3-methoxyanilino)-2-morpholino-6-(methyl)pyrimidine], in the assay with T-47D cells, the EC50 is above 5000 nM and the “T47 Ratio 48 hr” value turned out to be 1.2. In the assay with ZR-75-1 cells, the EC50 was above 5000 nM and the “ZR Ratio 48 hr” value is reported as 1.2.
Regarding `Cc1ccc(N)cc1Nc1cc(C(F)(F)F)nc(-c2cccnc2)n1.Cl` [Example 91, 4-(5-Amino-2-methylanilino)-2-(3-pyridinyl)-6-(trifluoromethyl)pyrimidine hydrochloride], in the assay on T-47D cells, the half-maximal effective concentration (EC50) was 1440 nM and the “T47 Ratio 48 hr” value is listed as 11.7. Further, in the assay with ZR-75-1 cells, the EC50 turned out to be 788 nM and the “ZR Ratio 48 hr” value is listed as 8.8.
For `COc1cccc(CNc2cc(C(F)(F)F)nc(-c3cccnc3)n2)c1` [Example 104, 4-(3-Methoxybenzylamino)-2-(3-pyridinyl)-6-(trifluoromethyl)pyrimidine] the same measures were above 5000 nM, 1.1, above 5000 nM and 1.7.
`COc1ccc(Cl)c(Nc2cc(C(F)(F)F)nc(-c3ccncc3)n2)c1` [Example 54, 4-(2-Chloro-5-methoxyanilino)-2-(4-pyridinyl)-6-(trifluoromethyl)pyrimidine]: in the assay on T-47D cells, the half-maximal effective concentration (EC50) was found to be 99 nM and the “T47 Ratio 48 hr” value was 10.5. In the assay with ZR-75-1 cells, the midpoint of the response, the EC50, lay at 101 nM and the “ZR Ratio 48 hr” value turned out to be 5.9.
Turning to `COc1ccc(Br)cc1Nc1cc(C(F)(F)F)nc(-c2cccnc2)n1` [Example 126, 4-(5-Bromo-2-methoxyanilino)-2-(3-pyridinyl)-6-(trifluoromethyl)pyrimidine], in the assay with T-47D cells, the EC50 was found to be 222 nM and the “T47 Ratio 48 hr” value was found to be 12.0. In addition, in the assay on ZR-75-1 cells, a half-maximal effect (EC50) was put at 353 nM and the “ZR Ratio 48 hr” value is given as 5.9.
Consider `Fc1c(F)c(F)c(Oc2cccc(Nc3cc(C(F)(F)F)nc(-c4cccnc4)n3)c2)c(F)c1F` [Example 62, 4-[3-(2,3,4,5,6-Pentafluorophenoxy)anilino]-2-(3-pyridinyl)-6-(trifluoromethyl)pyrimidine], for which, in the assay with T-47D cells, the EC50 is above 5000 nM and the “T47 Ratio 48 hr” value worked out at 1.6. In addition, in the assay with ZR-75-1 cells, the EC50 was above 5000 nM and the “ZR Ratio 48 hr” value is recorded as 1.3.
Consider `Cc1cc2cc(Nc3cc(C(F)(F)F)nc(-c4cccnc4)n3)ccc2[nH]1` [Example 213, 4-(2-Methyl-indol-5-ylamino)-2-(3-pyridinyl)-6-trifluoromethylpyrimidine], for which, in the assay on T-47D cells, the EC50 came out at 2680 nM and the “T47 Ratio 48 hr” value is 14.1. In addition, in the assay on ZR-75-1 cells, it took 1770 nM to reach a half-maximal effect (EC50) and the “ZR Ratio 48 hr” value is 9.9.
For `COc1ccc(OC)c(Nc2cc(C(F)(F)F)nc(-c3ccccn3)n2)c1` [Example 63, 4-(2,5-Dimethoxyanilino)-2-(2-pyridinyl)-6-(trifluoromethyl)pyrimidine] the same measures were 18 nM, 8.9, 43 nM and 9.6.
For `COc1cccc(Nc2cc(C)nc(-c3ccccn3)n2)c1OC` [Example 22, 4-(2,3-Dimethoxyanilino)-6-methyl-2-(2-pyridinyl)pyrimidine], in the assay with T-47D cells, the EC50 was above 5000 nM and the “T47 Ratio 48 hr” value stood at 1.9. For the same compound, in the assay on ZR-75-1 cells, the EC50 is 6050 nM and the “ZR Ratio 48 hr” value is 3.5.
With `COc1cc(Nc2cc(C(F)(F)F)nc(-c3cc(Cl)nc(Cl)c3)n2)cc(OC)c1` [Example 163, 4-(3,5-Dimethoxyanilino)-2-(2,6-dichloro-4-pyridinyl)-6-trifluoromethylpyrimidine], in the assay with T-47D cells, the EC50 is above 5000 nM and the “T47 Ratio 48 hr” value was found to be 1.1. For the same compound, in the assay on ZR-75-1 cells, the EC50 was above 5000 nM and the “ZR Ratio 48 hr” value was 1.6.
Consider `COc1ccc(OC)c(Nc2cc(C(F)(F)F)nc(-c3cccnc3)n2)c1` [Example 38, 4-(2,5-Dimethoxyanilino)-2-(3-pyridinyl)-6-(trifluoromethyl)pyrimidine], for which, in the assay on T-47D cells, the EC50 was 19 nM and the “T47 Ratio 48 hr” value came to 8.8. In addition, in the assay with ZR-75-1 cells, the midpoint of the response, the EC50, lay at 69 nM and the “ZR Ratio 48 hr” value was determined as 12.4.
With `COc1ccc(C)c(Nc2cc(C)nc(-c3ccccn3)n2)c1` [Example 53, 4-(5-Methoxy-2-methylanilino)-6-methyl-2-(2-pyridinyl)pyrimidine], in the assay on T-47D cells, the EC50 was 115 nM and the “T47 Ratio 48 hr” value was determined as 20.4. In the assay with ZR-75-1 cells, the response was half-maximal at 599 nM (EC50) and the “ZR Ratio 48 hr” value was 6.6.
In the case of `COCc1cc(Nc2cccc(OC)c2)nc(-c2csc(C)n2)n1` [Example 44, 4-(3-Methoxyanilino)-6-(methoxymethyl)-2-(2-methyl-1-3-thiazol-4-yl)pyrimidine], in the assay with T-47D cells, the EC50 was above 5000 nM and the “T47 Ratio 48 hr” value was 1.6. Moreover, in the assay on ZR-75-1 cells, the EC50 was above 5000 nM and the “ZR Ratio 48 hr” value came to 1.9.
On to `COc1cccc(Nc2cc(C(F)(F)F)nc(-c3ccncc3)n2)c1` [Example 41, 4-(3-Methoxyanilino)-2-(4-pyridinyl)-6-(trifluoromethyl)pyrimidine], for which, in the assay with T-47D cells, the EC50 amounted to 521 nM and the “T47 Ratio 48 hr” value is recorded as 7.5. Further, in the assay with ZR-75-1 cells, the EC50 was above 5000 nM and the “ZR Ratio 48 hr” value came out at 1.6.
For the compound `COc1cc(Nc2cc(C(F)(F)F)nc(-c3ccccn3)n2)c(OC)cc1Cl.Cl` [Example 150, 4-(4-Chloro-2,5-dimethoxyanilino)-2-(2-pyridinyl)-6-(trifluoromethyl)pyrimidine hydrochloride], in the assay on T-47D cells, the EC50 was 135 nM and the “T47 Ratio 48 hr” value is reported as 11.0. For the same compound, in the assay on ZR-75-1 cells, a half-maximal response (EC50) required 133 nM and the “ZR Ratio 48 hr” value was 9.7.
As for `Cc1ccc(O)cc1Nc1cc(C(F)(F)F)nc(-c2cccnc2)n1` [Example 117, 4-(5-Hydroxy-2-methylanilino)-2-(3-pyridinyl)-6-(trifluoromethyl)pyrimidine], in the assay on T-47D cells, the EC50 was 138 nM and the “T47 Ratio 48 hr” value was found to be 11.3. In the assay with ZR-75-1 cells, the EC50 was 276 nM and the “ZR Ratio 48 hr” value is reported as 6.3.
